Experimental data: article PMC5080649 (CPT: Pharmacometrics & Systems Pharmacology, 2016)
≈ marks a conversion by molar mass, not a printed value. Where two headings read alike, the source gives them in different places.

Assays:
[1] = biological target: coagulation factor X (Homo sapiens, UniProt P00742); test: Coagulation factor X; type: in vivo
[2] = biological target: factor X (Homo sapiens, UniProt P00742); test: Factor X chromogenic activity assay; type: in vivo; details: for comparable dose of rivaroxaban in FXCAA: Monte-Carlo simulation
Sequence of factor X (P00742 235-488 limits assumed): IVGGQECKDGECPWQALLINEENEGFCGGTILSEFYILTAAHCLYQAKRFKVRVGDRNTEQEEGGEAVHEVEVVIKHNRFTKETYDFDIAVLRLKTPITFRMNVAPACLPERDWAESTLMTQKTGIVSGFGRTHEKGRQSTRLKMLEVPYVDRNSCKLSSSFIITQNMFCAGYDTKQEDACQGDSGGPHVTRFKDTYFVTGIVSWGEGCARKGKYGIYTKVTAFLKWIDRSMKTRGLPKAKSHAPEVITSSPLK
Sequence of factor X (P00742 41-179 limits assumed): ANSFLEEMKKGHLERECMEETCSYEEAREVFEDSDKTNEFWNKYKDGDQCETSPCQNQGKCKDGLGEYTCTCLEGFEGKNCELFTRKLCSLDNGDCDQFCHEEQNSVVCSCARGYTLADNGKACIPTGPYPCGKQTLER

[3] = biological target: factor Xa (Homo sapiens, UniProt P00742); test: Antifactor Xa; type: in vivo
Sequence of factor Xa (Homo sapiens, UniProt P00742) (P00742 235-488 limits assumed): as the sequence (P00742 235-488 limits assumed) above
Sequence of factor Xa (Homo sapiens, UniProt P00742) (P00742 41-179 limits assumed): as the sequence (P00742 41-179 limits assumed) above

[4] = tested on: prothrombin time; test: Prothrombin time; type: in vivo, human; details: for EC50: Homo sapiens; for comparable dose of rivaroxaban in PT: Monte-Carlo simulation
[5] = tested on: activated partial thromboplastin time; test: Activated partial thromboplastin time; type: in vivo, human; details: for EC50: Homo sapiens
[6] = tested on: antithrombin III; test: Antithrombin III; type: in vivo, human; details: AT III activity; GCC4401C, SAD study; Linear model
[7] = biological target: factor Xa (Bos taurus, UniProt P00743); test: LMWH assay; type: in vivo, human; details: GCC4401C, SAD study
[8] = for CL renal: male, human, in vivo, GCC-4401C, plasma and urine PK modeling analysis from the SAD study
[9] = oral, cited from earlier work
[10] = Coagulation factor X, GCC4401C, SAD and S&MAD studies, variance (CV %)
[11] = Coagulation factor X, GCC4401C, variance (CV %)
[12] = FXCAA, GCC4401C, S&MAD study, variance (CV %)
[13] = Antifactor Xa activity, GCC4401C, S&MAD study, Sigmoid Emax model
[14] = Antifactor Xa activity, GCC4401C, S&MAD study, variance (CV %)
[15] = PT (INR), GCC4401C, SAD and S&MAD studies, Sigmoid Emax model
[16] = Prothrombin time (seconds), GCC4401C, Sigmoid Emax model
[17] = GCC4401C oral, fasted, SAD and S&MAD studies, final model
[18] = GCC4401C oral, fasted, SAD and S&MAD studies, variance (CV %)
[19] = GCC-4401C oral, fasted, base model
[20] = Coagulation factor X, Rivaroxaban, S&MAD study, Sigmoid Emax model
[21] = Coagulation factor X, Rivaroxaban, S&MAD study, variance (CV %)
[22] = FXCAA, Rivaroxaban, S&MAD study, variance (CV %)
[23] = PT (INR), Rivaroxaban, S&MAD study, Simple Emax model
[24] = Activated PT (seconds), Rivaroxaban, S&MAD, Sigmoid Emax model
[25] = rivaroxaban 20 mg, fed, S&MAD study
[26] = rivaroxaban 20 mg, fed, S&MAD study, variance (CV %)

Sequence of coagulation factor X (P00742 235-488 limits assumed): as the sequence (P00742 235-488 limits assumed) above
Sequence of coagulation factor X (P00742 41-179 limits assumed): as the sequence (P00742 41-179 limits assumed) above

CS(=O)(=O)O.O=C(NC[C@H]1CN(c2ccc(N3CCNC=N3)cc2)C(=O)O1)c1ccc(Cl)s1 [GCC‐4401C, (S)−5‐chloro‐N‐((3‐(4‐(5,6‐dihydro‐1,2,4‐triazin‐1(4H)‐yl)phenyl)−2‐oxooxazolidin‐5‐yl)methyl)thiophene‐2‐carboxamide methanesulfonate]
EC50 [1]: 5.58 µM
Emax ([1]; Coagulation factor X, GCC4401C, SAD and S&MAD studies, Sigmoid Emax model): 81.2%
IIVEC50 (%) [1, 10]: 0.98 (129.4)
IIVEmax (CV, %) [1, 10]: 0.10 (33.1)
γSAD (shape parameter) ([1]; Coagulation factor X, GCC4401C, SAD study, Sigmoid Emax model): 1.07
γSAD/MAD (shape parameter) ([1]; Coagulation factor X, GCC4401C, SAD/MAD study, Sigmoid Emax model): 0.60
IIVγ (CV, %) [1, 11]: 0.24 (51.8)
IOVγ (CV, %) [1, 11]: 0.09 (30.1)
EC50 [2]: 814 nM
γ (shape parameter) ([2]; FXCAA, GCC4401C, S&MAD study, Sigmoid Emax model): 0.90
IIVEmax (CV, %) [2, 12]: 0.01 (11.3)
IIVγ (CV, %) [2, 12]: 0.06 (25.7)
Emax ([2]; Factor X chromogenic activity assay, GCC4401C, S&MAD study, Sigmoid Emax model): 99.8%
comparable dose of rivaroxaban in FXCAA ([2]; GCC-4401C 10 mg): 30 to 40 mg
comparable dose of rivaroxaban in FXCAA ([2]; GCC-4401C 20 mg): ~80 mg
EC50 [3]: 1350 nM
Emax [3, 13]: 3.24 IU/mL
γ (shape parameter) [3, 13]: 1.25
IIV + IOVEC50 (%) [3, 14]: 0.005 (7.2)
IIVEmax (CV, %) [3, 14]: 0.04 (20.8)
IIVγ (CV, %) [3, 14]: 0.02 (13.4)
comparable dose of rivaroxaban in AFX assay ([3]; Monte-Carlo simulation, GCC-4401C 10 mg): ~20 mg
comparable dose of rivaroxaban in AFX ([3]; Monte-Carlo simulation, GCC-4401C 20 mg): ~40 mg
EC50 ([4]; read-out: EC50, SAD, PT (INR), GCC4401C, SAD study, Sigmoid Emax model): 0.426 µg/mL
EC50 ([4]; read-out: EC50, SAD, Prothrombin time (seconds), GCC4401C, SAD study, Sigmoid Emax model): 0.563 µg/mL
EC50 ([4]; read-out: EC50, SAD/MAD, PT (INR), GCC4401C, SAD/MAD study, Sigmoid Emax model): 1.35 µg/mL
EC50 ([4]; read-out: EC50, SAD/MAD, Prothrombin time (seconds), GCC4401C, SAD/MAD study, Sigmoid Emax model): 1.45 µg/mL
comparable dose of rivaroxaban in PT ([4]; GCC-4401C 10 mg): 30 to 40 mg
comparable dose of rivaroxaban in PT ([4]; GCC-4401C 20 mg): ~40 mg
Emax [4, 15]: 1.32 INR
γ (shape parameter) [4, 15]: 1.23
Emax [4, 16]: 15.2 s
γ (shape parameter) [4, 16]: 1.16
Emax, SAD ([5]; Activated PT (seconds), GCC4401C, SAD study, Sigmoid Emax model): 16.9 s
Emax, SAD/MAD ([5]; Activated PT (seconds), GCC4401C, SAD/MAD study, Sigmoid Emax model): 20.4 s
γ (shape parameter) ([5]; Activated PT (seconds), GCC4401C, Sigmoid Emax model): 1.37
EC50 [5]: 0.573 µg/mL
SLOPE [6]: 0.006
Emax ([7]; Simple Emax model): 3.83
IIVEC50 (CV, %) ([7]; variance (CV %)): 0.29 (57.4)
ALAG1 (delay in absorption) [8, 17]: 0.20 h
D1 (duration of zero-order absorption) [8, 17]: 0.395 h
IIV + IOVALAG1 (CV, %) [8, 18]: 0.14 (38.8)
IIV + IOVD1 (CV, %) [8, 18]: 1.49 (185.4)
IIVCLNR (CV, %) [8, 18]: 0.046 (21.7)
IIVCLR (CV, %) [8, 18]: 0.052 (23.2)
IIVKa (CV, %) [8, 18]: 0.97 (128.0)
IIVVc (CV, %) [8, 18]: 0.09 (30.5)
IIVVp (CV, %) [8, 18]: 0.11 (33.8)
Θ for WT and Vc (power covariate effect of body weight on Vc) ([8]; GCC4401C, Typical Vc=Vc(75)*(WT/75)^Θ): 0.67
Vc [8, 19]: 55.6 L
Vp [8, 19]: 25.9 L
average steady-state volume of distribution [8, 19]: 81.5 L
total clearance ([8]; GCC-4401C oral, fasted, final model): 12.0 L/h
CL renal ([8]; nonrenal clearance (CLNR)): 200 mL/min
CL renal ([8]; renal clearance (CLR)): 13.7 mL/min

O=C(NC[C@H]1CN(c2ccc(N3CCOCC3=O)cc2)C(=O)O1)c1ccc(Cl)s1 [rivaroxaban, reference compound]
Emax [1, 20]: 42.9%
γ (shape parameter) [1, 20]: 0.90
IIVEC50 (CV, %) [1, 21]: 0.33 (62.1)
IOVEC50 (CV, %) [1, 21]: 0.25 (52.9)
Emax ([2]; FXCAA, Rivaroxaban, S&MAD study, Simple Emax model): 112.0%
IIVEC50 (CV, %) [2, 22]: 0.07 (26.9)
IOVEC50 (CV, %) [2, 22]: 0.01 (8.2)
SLOPE ([3]; Antifactor Xa activity, Rivaroxaban, S&MAD study, Linear model): 0.005
IIVSLOPE (CV, %) ([3]; Antifactor Xa activity, Rivaroxaban, S&MAD study, variance (CV %)): 0.01 (10.8)
EC50 [4, 23]: 0.434 µg/mL (≈ 0.996 µM)
Emax [4, 23]: 0.71 INR
Emax ([4]; Prothrombin time (seconds), Rivaroxaban, S&MAD study, Simple Emax model): 6.86 s
Emax [5, 24]: 12.4 s
γ (shape parameter) [5, 24]: 0.94
EC50 [5]: 0.135 µg/mL (≈ 0.31 µM)
increase of Cmax with food ([9]; >10 mg, with food vs fasting): 76%
increase of mean area under concentration time curve with food ([9]; >10 mg, with food vs fasting): 39%
bioavailability ([9]; independent of food up to 10 mg): 80–100%
D1 (duration of zero-order absorption) [8, 25]: 1.07 h
γ (shape parameter in Weibull-type absorption model) [8, 25]: 1.34
IIVCL (%) [8, 26]: 0.015 (12.3)
IIVKa (CV, %) [8, 26]: 3.3 (503.1)
IIVVc (CV, %) [8, 26]: 0.01 (10.0)
IIVVp (CV, %) [8, 26]: 0.06 (25.7)
